Reference: patent EP1637537A1, “New medicaments” (Riemser Arzneimittel AG, priority 2004, dated 2006)

Experiments:
Würgereiz = assay: Gag reflex inhibition after gag stimulus, clinical study; assay type: in vivo, männlichen und weiblichen gesunden Probanden; conditions: oral 100 mg as Vagantin® film tablet or fresh solution; tested immediately after application and 1, 2 and 6 hours later (Figur 2)
Description: (§1) In einer klinischen Studie an 10 männlichen und weiblichen gesunden Probanden im Alter zwischen 20 und 60 Jahren wurde die Ausschaltung bzw. Verzögerung des Würgereizes und der Verminderung des Speichelflusses bei ärztlichen oder zahnärztlichen Manipulationen im Rachenraum geprüft.
(§2) Die obengenannte Filmtablettenformulierung bzw. die dort genannte Lösung von 100 mg Methantheliniumbromid in Wasser als Frischlösung wurde auch hier verwendet.
(§3) Nach Würgereizstimulus wurde die Würgereflexhemmung unmittelbar nach Applikation, sowie im Abstand von 1, 2 und 6 Stunden danach geprüft. Gleichzeitig wurde die Speichelflußrate vor und nach Einnahme von Methantheliniumbromid in Form von Vagantin® gemessen. […] Die Ergebnisse sind in den Figuren. 2 und 3 dargestellt.

Speichelfluß = assay: Saliva flow rate before and after intake, clinical study; assay type: in vivo, männlichen und weiblichen gesunden Probanden; conditions: oral 100 mg as Vagantin®; before and after intake (Figur 3)
Description: as §1, §2, §3
Figur 3 zeigt die Speichelsekretion in Abhängigkeit von der Methanthelinkonzentration im Plasma nach oraler Gabe von 100 mg Wirkstoff an gesunde Freiwillige. Ferner kann von einem Methanthelinbromidgehalt im Plasma von etwa 5 ng/ml über einen Zweitraum von 8 Stunden ausgegangen werden (Figur 1).

[1] = Serum/plasma concentration-time profile after oral dosing in volunteers; assay type: in vivo, männliche und weiblichen Probanden
Description: Die Studie wurde an 12 männliche und weiblichen Probanden im Alter zwischen 18 und 45 Jahren durchgeführt. Der Wirkstoff (Methantheliniumbromid) wurden oral als Filmtablette oder als Lösung appliziert. Zu unterschiedlichen Zeiten nach der Dosierung wurden Messungen vorgenommen und Laborwerte zur Charakterisierung der Wirkung festgestellt.
Im Beispiel wurden 100 mg Wirkstoff als Filmtablette der folgenden Formulierung eingesetzt: • ◆ 50,0 mg Methantheliniumbromid • ◆ 30,0 mg Maisstärke • ◆ 18,75 mg Polyvinylprrolidon • ◆ 4,0 mg hochdisperses Siliziumdioxid • ◆ 146,25 mg Lactosemonohydrat • ◆ 1,0 mg Magnesiumsterarat • ◆ 1,0 mg Hydroxypropylmethylcellulose • ◆ 39,38 mg Talcum • ◆ 6,5 mg Gummi arabicum • ◆ 15,53 mg Calciumcarbonat • ◆ 7,73 mg Titandioxid • ◆ 6,58 mg Weißer Ton • ◆ 0,65 mg Macogol 6000 • ◆ 61,63 mg Saccharose • ◆ 1,0 mg E 100 • ◆ 0,1 mg Carnauba Wachs
Es ist auch möglich, eine reine Lösung von 100 mg Methantheliniumbromid in Wasser als Frischlösung herzustellen. Dabei empfiehlt es sich, den bitteren Geschmack des Wirkstoffes durch angenehme Geschmackskorrigentien zu überdecken. Hier bieten sich z. B. einige Spritzer eines Mundwassers mit Pfefferminzgeschmack an.
Ausdruck dafür ist das in der Figur 1 dargestellte Konzentrations-Zeit-Profil. Zu beachten ist eine deutliche individuelle Schwankungsbreite in der Serumkonzentration nach Zuführung beider Applikationsformen. […]

CC[N+](C)(CC)CCOC(=O)C1c2ccccc2Oc2ccccc21.[Br-] [Methantheliniumbromid, N,N-Diethyl-N-methyl-2-(xanthenylcarbonyloxy)ethylammoniumbromid]
Würgereflexhemmung (Würgereiz): deutliche Verzögerung des Würgereizesreflexes | Speichelflußrate (Speichelfluß): deutliche Reduzierung des Speichelflusses | concentration at 8 h ([1]; human, plasma, oral, 100 mg, over a period of 8 hours (Figur 1), read-out: Methanthelinbromidgehalt im Plasma): ~5 ng/mL | Reaktion (Konzentrations-Zeit-Profil, Serumkonzentration) ([1]; oral drinking solution compared with film tablet, 100 mg (Figur 1)): etwas stärkere Reaktion als die Filmtablette
